Laboratory results as given in ChEMBL document CHEMBL1201862, “PubChem BioAssay data set” (2004).
Active and inactive are the calls of the source.

Key:
[1] = molecular target: Polyadenylate-binding protein 1 (Homo sapiens, UniProt P11940); assay: blockers of PABP interaction with poly(A) – biochemical, fluorescence polarization, […] (AID 2014)
[2] = molecular target: DNA dC->dU-editing enzyme APOBEC-3G (Homo sapiens, UniProt Q9HC16); type: functional;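 note: Dose-response counterscreen measuring inhibition of APOBEC3G DNA deaminase activity, run while confirming APOBEC3A inhibitors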
[3] = molecular target: T1, DNA dC->dU-editing enzyme APOBEC-3A (Homo sapiens, UniProt P31941); assay: Dose Response confirmation of small molecule APOBEC3A DNA Deaminase Inhibitors via a fluorescence-based single-stranded DNA deaminase assay. [Related pubchem assays (depositor defined):AID493011, AID493024]; type: functional
[4] = molecular target: Eukaryotic translation initiation factor 4H (Homo sapiens, UniProt Q15056); assay: eIF4H binding inhibition – biochemical, uHTS, fluorescence polarization, translation initiation inhibitor project, primary screen (AID 2012)
[5] = THP-1 cell cytotoxicity, dose response, cytotoxicity control for non-replicating M. tuberculosis project (AID 489025); type: functional
[6] = Vero E6 cell cytotoxicity, dose response, cytotoxicity control for non-replicating M. tuberculosis project, secondary assay (AID 492998); type: functional, VeroE6; settings: Vero C1008
cells [7] = type: functional, cell-based
[8] = HepG2 cell cytotoxicity, dose response, cytotoxicity control for non-replicating M. tuberculosis project (AID 489018); type: functional; settings: Mycobacterium tuberculosis
cells [9] = type: functional
[10] = microbe, parasite or virus in culture; type: functional; settings: Mycobacterium tuberculosis
Nonstructural protein 1 = Nonstructural protein 1 (Influenza A virus, UniProt Q194T2); type: functional, Influenza A virus (A/California/07/2009(H1N1))
cells [11] = type: functional, cell-based; remark: listed apart in the source
[12] = molecular target: T2, Rac GTPase-activating protein 1 (Homo sapiens, UniProt Q9H0H5); assay: blockers of MgcRacGAP-driven Rac1 GTP hydrolysis – biochemical, ADP Hunter fluorescence, primary and confirmatory, confirmation (AID 624330); type: functional
T2 sequence (Q9H0H5 whole entry): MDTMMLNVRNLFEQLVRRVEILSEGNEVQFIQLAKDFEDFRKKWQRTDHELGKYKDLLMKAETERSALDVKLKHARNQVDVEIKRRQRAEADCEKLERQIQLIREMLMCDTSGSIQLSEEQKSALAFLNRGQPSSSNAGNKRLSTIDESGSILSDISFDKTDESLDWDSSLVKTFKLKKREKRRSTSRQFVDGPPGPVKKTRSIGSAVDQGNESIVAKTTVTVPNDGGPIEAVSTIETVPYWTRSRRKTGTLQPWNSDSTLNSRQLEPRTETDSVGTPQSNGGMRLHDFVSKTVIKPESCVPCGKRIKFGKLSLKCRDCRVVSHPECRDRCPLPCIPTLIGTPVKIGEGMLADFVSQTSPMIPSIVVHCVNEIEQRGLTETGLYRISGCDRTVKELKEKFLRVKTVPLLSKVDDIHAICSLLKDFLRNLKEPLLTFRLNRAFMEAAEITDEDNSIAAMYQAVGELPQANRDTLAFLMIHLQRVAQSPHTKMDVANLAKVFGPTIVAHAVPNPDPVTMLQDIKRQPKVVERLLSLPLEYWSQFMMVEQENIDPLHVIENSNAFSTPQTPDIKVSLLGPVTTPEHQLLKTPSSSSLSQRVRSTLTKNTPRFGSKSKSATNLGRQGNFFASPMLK

[13] = molecular target: T3, Ubiquitin-conjugating enzyme E2 N (Homo sapiens, UniProt P61088); type: functional
T3 sequence (P61088 whole entry): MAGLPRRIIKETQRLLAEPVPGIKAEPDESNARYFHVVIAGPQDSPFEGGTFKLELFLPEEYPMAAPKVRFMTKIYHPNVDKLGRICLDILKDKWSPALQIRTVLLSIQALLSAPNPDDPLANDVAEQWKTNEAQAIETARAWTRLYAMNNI

[14] = molecular target: T3, Ubiquitin-conjugating enzyme E2 N; type: functional; remark: listed apart in the source
Bcl-2-related protein A1 = Bcl-2-related protein A1 (Mus musculus, UniProt Q07440); type: functional;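 note: confirmatory dose–response counterscreen on Bfl-1, used to check hits from a UBC13 polyubiquitin inhibitor campaign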
Hexokinase-1 = molecular target: T4, Hexokinase-1 (Homo sapiens, UniProt P19367); assay: HK1 enzyme activation by HKDC1 hits – biochemical, selectivity assay for HKDC1 activator project, dose response (AID 504762); type: functional
T4 sequence (P19367 whole entry): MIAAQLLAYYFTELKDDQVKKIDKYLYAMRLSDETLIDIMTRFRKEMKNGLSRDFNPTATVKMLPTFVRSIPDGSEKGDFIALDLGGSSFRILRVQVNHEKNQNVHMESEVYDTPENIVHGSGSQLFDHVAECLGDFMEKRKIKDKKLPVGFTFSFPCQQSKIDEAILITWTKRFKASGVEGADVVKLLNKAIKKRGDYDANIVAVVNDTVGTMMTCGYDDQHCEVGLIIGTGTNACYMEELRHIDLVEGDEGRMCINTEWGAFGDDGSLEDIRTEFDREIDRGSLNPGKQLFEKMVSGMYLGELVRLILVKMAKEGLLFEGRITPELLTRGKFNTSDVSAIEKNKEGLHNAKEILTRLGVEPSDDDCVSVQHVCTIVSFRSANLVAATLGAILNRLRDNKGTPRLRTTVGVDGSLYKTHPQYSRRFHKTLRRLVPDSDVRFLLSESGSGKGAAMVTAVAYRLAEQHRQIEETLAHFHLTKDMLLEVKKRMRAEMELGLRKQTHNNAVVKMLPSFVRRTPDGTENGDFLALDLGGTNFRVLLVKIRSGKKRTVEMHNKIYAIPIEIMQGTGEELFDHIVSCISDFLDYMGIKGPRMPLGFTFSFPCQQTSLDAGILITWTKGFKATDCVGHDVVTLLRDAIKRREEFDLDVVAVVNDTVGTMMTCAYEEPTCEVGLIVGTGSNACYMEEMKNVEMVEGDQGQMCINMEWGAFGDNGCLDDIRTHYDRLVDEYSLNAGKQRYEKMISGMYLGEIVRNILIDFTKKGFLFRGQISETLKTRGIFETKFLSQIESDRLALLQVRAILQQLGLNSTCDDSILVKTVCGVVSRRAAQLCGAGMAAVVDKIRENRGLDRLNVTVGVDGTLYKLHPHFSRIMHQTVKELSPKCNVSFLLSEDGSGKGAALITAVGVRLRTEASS

Hexokinase HKDC1 = molecular target: T5, Hexokinase HKDC1 (Homo sapiens, UniProt Q2TB90); assay: inhibition of HKDC1 glucose phosphorylation – biochemical, W721R variant, dose response (AID 504729); type: functional
T5 sequence (Q2TB90 whole entry): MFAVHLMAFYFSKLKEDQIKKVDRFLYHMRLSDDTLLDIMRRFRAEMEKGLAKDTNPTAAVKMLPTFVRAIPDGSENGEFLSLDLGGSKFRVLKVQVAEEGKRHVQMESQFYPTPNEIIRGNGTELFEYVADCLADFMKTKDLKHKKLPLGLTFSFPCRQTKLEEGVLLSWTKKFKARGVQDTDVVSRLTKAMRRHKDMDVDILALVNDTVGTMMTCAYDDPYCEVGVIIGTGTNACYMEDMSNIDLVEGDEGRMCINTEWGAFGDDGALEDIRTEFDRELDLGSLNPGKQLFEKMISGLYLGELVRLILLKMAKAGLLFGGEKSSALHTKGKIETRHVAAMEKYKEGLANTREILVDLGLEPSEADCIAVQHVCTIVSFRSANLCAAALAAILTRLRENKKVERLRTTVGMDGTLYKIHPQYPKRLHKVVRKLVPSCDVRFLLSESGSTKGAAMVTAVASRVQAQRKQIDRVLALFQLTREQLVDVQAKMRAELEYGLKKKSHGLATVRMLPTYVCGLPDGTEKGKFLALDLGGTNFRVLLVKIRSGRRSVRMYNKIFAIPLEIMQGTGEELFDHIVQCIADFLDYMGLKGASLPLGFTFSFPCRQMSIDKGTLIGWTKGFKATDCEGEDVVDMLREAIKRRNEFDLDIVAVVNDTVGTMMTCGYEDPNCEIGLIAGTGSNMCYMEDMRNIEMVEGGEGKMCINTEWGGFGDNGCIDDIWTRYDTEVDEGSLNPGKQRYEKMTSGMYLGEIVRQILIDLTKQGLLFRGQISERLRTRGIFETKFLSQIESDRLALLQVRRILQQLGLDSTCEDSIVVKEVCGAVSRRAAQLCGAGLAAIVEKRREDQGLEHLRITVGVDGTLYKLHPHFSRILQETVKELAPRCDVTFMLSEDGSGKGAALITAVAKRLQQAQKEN

[15] = molecular target: T6, Corticotropin-releasing factor receptor 2/Corticotropin-releasing factor-binding protein (Homo sapiens, UniProt P24387+Q13324); assay: activators of CRF receptor 2 with binding protein – uHTS hits, confirmation (AID 602473); type: functional; settings: read-out: EC50_Mean
T6 sequence (Q13324 whole entry): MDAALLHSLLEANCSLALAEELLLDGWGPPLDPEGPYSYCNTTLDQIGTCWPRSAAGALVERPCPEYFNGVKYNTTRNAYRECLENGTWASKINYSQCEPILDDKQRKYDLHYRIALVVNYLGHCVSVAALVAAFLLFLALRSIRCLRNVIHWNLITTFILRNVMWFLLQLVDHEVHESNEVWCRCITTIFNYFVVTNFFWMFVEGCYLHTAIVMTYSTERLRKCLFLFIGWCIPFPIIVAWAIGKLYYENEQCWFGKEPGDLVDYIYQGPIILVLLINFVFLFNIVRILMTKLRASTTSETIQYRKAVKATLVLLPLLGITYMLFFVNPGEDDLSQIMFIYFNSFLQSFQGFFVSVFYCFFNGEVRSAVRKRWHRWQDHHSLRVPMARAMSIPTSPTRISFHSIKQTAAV
T6 sequence (P24387 whole entry): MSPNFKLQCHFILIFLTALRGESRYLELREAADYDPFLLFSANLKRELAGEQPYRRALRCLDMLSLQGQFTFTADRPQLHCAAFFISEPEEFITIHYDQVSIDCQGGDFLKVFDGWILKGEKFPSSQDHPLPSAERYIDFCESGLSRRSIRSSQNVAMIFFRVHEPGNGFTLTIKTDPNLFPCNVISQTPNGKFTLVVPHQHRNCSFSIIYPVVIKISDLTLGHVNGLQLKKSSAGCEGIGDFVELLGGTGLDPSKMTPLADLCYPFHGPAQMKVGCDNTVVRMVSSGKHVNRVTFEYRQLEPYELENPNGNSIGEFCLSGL

[16] = molecular target: T7, Runt-related transcription factor 1/Core-binding factor subunit beta (Homo sapiens, UniProt Q01196+Q13951); assay: disruptors of Runt domain/CBFb-SMMHC interaction – biochemical, FRET, Cerulean-Runt, Venus-CBFb-SMMHC, uHTS, […] (AID 1434); type: protein assay
Estrogen receptor beta = Estrogen receptor beta (Homo sapiens, UniProt Q92731);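 note: recombinant ER-beta bound to coactivator SRC1 peptide in presence of estradiol agonist; inhibitors block coactivator peptide binding and lower the FRET signal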
[17] = molecular target: T7, Runt-related transcription factor 1/Core-binding factor subunit beta; assay: Runt domain/CBFb-SMMHC interaction disruptors – biochemical, TR-FRET (AID 1438); type: protein assay
[18] = molecular target: Eukaryotic translation initiation factor 4E (Mus musculus, UniProt P63073); assay: blockers of eIF4G binding by eIF4E – biochemical, TR-FRET, dose response (AID 855); type: functional;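 note: potency for disrupting eIF4E binding to eIF4GI seen as loss of FRET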
[19] = molecular target: T1, DNA dC->dU-editing enzyme APOBEC-3A; assay: A3A deaminase inhibition for selectivity – biochemical, dose response (AID 504722); type: functional
[20] = molecular target: T8, Voltage-gated N-type calcium channel alpha-1B subunit/Amyloid beta A4 precursor protein-binding family A member 1 (Homo sapiens, UniProt Q00975+Q02410); type: protein assay
[21] = molecular target: T8, Voltage-gated N-type calcium channel alpha-1B subunit/Amyloid beta A4 precursor protein-binding family A member 1; type: protein assay; remark: listed apart in the source
Large T antigen = Large T antigen (Simian virus 40, UniProt P03070); type: functional, Betapolyomavirus macacae;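 note: Confirmatory-stage PubChem screen for compounds that inhibit SV40 T antigen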

T1 sequence (P31941 whole entry): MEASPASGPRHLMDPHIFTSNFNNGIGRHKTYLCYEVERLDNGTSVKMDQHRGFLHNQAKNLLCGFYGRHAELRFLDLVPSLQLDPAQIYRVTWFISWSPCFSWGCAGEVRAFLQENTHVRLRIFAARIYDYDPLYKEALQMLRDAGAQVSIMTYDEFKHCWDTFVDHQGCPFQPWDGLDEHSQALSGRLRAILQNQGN
Chain of DNA dC->dU-editing enzyme APOBEC-3G (Q9HC16 whole entry): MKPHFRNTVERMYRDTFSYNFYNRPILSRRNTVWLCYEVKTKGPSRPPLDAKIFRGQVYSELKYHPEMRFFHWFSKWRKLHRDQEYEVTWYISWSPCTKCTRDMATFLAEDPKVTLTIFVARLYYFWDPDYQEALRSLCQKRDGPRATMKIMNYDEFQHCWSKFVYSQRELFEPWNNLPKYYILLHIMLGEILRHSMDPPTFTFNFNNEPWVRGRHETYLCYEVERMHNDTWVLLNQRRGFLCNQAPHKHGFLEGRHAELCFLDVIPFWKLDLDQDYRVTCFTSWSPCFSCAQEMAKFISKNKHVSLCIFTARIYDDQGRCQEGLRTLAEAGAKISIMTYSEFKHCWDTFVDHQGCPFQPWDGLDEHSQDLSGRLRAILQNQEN
T7 sequence (Q01196 whole entry, the tested form may be a part): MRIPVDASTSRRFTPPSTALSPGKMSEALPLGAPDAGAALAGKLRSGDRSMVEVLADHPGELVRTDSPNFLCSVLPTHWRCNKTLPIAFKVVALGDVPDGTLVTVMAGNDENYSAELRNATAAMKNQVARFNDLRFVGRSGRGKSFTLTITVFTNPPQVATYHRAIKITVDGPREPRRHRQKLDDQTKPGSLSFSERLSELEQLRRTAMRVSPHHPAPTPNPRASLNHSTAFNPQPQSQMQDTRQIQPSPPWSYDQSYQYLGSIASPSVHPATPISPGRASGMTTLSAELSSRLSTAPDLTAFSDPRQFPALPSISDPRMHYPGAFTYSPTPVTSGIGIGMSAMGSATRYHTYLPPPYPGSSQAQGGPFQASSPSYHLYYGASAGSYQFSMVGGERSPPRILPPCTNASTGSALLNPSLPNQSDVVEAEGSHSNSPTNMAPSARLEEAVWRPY
T7 sequence (Q13951 whole entry, the tested form may be a part): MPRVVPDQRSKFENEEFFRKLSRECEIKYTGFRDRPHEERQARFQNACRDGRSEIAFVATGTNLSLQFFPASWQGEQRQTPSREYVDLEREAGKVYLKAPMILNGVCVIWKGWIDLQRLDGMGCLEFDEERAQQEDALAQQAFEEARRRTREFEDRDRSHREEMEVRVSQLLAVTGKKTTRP
Chain of Bcl-2-related protein A1 (Q07440 whole entry): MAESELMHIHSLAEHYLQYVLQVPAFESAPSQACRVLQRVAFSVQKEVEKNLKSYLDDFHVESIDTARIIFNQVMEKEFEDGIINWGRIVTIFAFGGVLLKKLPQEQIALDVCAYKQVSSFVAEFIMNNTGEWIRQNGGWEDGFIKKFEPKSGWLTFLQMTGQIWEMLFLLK
T8 sequence (Q00975 whole entry): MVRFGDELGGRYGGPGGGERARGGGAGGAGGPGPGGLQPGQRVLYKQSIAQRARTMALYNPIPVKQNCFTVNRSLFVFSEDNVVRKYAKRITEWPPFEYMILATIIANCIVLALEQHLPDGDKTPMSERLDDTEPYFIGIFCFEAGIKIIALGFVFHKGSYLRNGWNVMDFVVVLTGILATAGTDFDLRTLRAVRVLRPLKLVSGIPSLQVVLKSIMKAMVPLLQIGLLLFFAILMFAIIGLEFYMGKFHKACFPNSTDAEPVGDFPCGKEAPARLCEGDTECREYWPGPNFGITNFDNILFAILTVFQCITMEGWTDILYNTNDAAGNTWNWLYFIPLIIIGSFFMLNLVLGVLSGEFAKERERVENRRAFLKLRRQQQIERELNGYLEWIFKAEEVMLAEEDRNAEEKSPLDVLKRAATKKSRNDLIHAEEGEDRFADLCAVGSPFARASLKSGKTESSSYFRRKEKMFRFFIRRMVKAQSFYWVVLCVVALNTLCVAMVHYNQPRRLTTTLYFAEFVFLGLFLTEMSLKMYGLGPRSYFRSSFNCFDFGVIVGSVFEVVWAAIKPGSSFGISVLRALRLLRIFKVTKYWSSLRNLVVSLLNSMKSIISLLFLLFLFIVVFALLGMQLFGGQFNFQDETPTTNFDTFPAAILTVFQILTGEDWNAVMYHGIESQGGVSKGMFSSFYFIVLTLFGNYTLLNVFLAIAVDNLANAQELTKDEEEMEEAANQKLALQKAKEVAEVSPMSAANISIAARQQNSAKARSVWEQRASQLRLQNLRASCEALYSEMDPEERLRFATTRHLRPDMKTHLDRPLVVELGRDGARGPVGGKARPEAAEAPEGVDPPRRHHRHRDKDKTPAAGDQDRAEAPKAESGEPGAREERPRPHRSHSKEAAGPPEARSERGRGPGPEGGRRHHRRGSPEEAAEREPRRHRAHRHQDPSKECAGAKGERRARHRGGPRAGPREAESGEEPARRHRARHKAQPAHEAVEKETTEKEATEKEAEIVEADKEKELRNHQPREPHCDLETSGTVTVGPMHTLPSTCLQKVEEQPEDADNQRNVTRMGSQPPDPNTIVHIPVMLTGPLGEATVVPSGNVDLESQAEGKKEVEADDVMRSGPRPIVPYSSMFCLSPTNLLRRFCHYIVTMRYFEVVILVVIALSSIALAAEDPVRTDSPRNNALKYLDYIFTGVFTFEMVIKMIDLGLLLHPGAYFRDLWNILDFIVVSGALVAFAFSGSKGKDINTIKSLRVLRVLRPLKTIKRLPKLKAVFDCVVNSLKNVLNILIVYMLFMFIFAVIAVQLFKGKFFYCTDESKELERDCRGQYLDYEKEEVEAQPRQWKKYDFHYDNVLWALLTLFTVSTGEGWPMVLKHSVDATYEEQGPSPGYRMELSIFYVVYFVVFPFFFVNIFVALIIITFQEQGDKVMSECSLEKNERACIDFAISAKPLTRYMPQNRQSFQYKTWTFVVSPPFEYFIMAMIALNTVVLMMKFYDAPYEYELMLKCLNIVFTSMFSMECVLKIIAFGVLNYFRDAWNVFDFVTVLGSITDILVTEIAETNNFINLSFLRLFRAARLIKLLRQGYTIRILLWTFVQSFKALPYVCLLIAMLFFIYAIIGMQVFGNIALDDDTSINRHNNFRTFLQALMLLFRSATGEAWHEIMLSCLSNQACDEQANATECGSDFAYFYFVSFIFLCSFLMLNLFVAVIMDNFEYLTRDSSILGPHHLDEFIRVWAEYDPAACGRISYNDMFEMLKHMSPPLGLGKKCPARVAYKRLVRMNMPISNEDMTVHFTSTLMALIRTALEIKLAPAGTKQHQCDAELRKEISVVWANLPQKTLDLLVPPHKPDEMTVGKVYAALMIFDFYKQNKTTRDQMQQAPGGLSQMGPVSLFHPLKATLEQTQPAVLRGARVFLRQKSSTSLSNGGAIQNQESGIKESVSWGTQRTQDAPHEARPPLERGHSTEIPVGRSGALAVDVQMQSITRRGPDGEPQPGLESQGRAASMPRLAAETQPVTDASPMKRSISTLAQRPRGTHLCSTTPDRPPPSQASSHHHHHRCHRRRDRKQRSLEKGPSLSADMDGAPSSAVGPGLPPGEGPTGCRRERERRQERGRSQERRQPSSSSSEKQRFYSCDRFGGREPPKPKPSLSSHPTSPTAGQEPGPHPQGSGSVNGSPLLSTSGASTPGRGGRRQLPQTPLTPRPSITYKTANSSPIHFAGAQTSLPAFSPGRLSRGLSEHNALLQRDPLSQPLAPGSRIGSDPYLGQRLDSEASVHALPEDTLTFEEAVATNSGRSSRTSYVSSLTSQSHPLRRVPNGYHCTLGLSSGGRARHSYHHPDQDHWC
T8 sequence (Q02410 whole entry): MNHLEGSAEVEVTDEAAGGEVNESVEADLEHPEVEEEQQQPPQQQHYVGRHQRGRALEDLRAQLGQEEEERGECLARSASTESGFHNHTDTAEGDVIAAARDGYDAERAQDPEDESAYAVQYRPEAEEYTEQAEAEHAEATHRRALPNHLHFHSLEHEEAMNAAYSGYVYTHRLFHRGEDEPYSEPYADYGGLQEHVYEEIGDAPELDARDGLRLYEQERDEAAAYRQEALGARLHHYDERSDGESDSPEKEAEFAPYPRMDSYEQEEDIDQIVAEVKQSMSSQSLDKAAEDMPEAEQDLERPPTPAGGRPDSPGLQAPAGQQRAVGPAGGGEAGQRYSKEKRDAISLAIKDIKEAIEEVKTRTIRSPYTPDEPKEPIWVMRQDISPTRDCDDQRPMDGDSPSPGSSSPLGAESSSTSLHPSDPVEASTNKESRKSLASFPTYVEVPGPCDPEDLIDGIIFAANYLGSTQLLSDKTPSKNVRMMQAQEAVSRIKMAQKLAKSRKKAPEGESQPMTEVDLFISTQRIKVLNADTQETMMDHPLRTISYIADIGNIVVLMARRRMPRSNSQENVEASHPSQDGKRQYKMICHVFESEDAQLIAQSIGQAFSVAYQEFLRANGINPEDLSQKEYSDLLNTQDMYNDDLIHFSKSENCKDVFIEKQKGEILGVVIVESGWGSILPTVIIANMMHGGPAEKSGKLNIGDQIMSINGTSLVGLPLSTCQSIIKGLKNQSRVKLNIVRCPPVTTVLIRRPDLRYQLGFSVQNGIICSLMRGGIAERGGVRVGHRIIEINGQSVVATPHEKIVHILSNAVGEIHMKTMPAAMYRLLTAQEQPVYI

COC(=O)C1=C(C)N(Cc2ccccc2)C(NCCCCO)=N[C@H]1CCc1ccccc1
IC50 [1]: 18.9 µM (active) | IC50 [2]: 5.42 µM (active) | IC50 [3]: 3.51 µM (active) | IC50 [4]: > 100 µM (inactive)

CNc1nc(-c2ccccn2)nnc1-c1ccccc1
CC50 [5]: 19.1 µM (active) | CC50 [6]: 19.9 µM (active) | EC50 (cells [7]): 12.8 µM (active) | CC50 [8]: > 20 µM (active) | IC50 (cells [9]): 11.1 µM (active) | CC50 [10]: 13.3 µM (active) | IC50 (Nonstructural protein 1): 1.66 µM (active) | EC50 (cells [11]): > 350 µM (not active)

C#CCOCCOCCOCCNc1nc(N2CCN(C(=O)[C@H](CCCCN)n3cc([C@@H](N)C(C)CC)nn3)CC2)nc(N2CCN(C(=O)[C@H](CCCCN)n3cc([C@@H](N)CC(C)C)nn3)CC2)n1 (some centres not stated)
IC50 [12]: 114 µM (active) | IC50 [13]: 8.4 µM (active) | IC50 [14]: 7.14 µM (active) | IC50 (Bcl-2-related protein A1): > 20 µM (inactive)

COc1cc(/C=N\NC(=O)c2sc(N)nc2C)cc(OC)c1OC
IC50 [13]: 0.477 µM (active) | IC50 [14]: 0.386 µM (active) | IC50 (Bcl-2-related protein A1): > 20 µM (inactive)

O=C(c1ccccc1)c1nnc(-c2ccccc2)cc1O
EC50 (Hexokinase-1): > 80 µM (inactive) | IC50 (Hexokinase HKDC1): > 80 µM (inactive)

Cc1cccc(S(=O)(=O)c2c(N)n(Cc3ccco3)c3nc4ccccc4nc23)c1
EC50 [15]: > 53 µM (inactive) | IC50 [16]: > 100 µM (inactive) | IC50 (Estrogen receptor beta): > 50 µM (not active) | IC50 [17]: > 100 µM (inactive)

CC[n+]1cccc(-c2nc3ccccc3s2)c1
IC50 [2]: 3.66 µM (active) | IC50 [3]: 3.65 µM (active)

COc1ccc(N2CSC3=C(C#N)C(c4cccs4)CC(=O)N3C2)cc1 (configuration not stated)
IC50 [18]: > 64 µM (inactive) | IC50 [19]: 74.1 µM (active) | IC50 [20]: > 50 µM (inactive) | IC50 [21]: 8.68 µM (active) | IC50 (Large T antigen): 10.7 µM (active)
